Assay results: ChEMBL document CHEMBL1145144, “Structure-based design of cycloamide-urethane-derived novel inhibitors of human brain memapsin 2 (beta-secretase)” (Bioorg Med Chem Lett, 2005)
“And” between values parts separate entries of the source, which are not always exact repeats. Identical values can stand only once.

The compounds below were run against Beta-secretase 1 (Homo sapiens, UniProt P56817) (assay: Binding affinity for human brain memapsin 2).
Beta-secretase 1, sequence (P56817 whole entry): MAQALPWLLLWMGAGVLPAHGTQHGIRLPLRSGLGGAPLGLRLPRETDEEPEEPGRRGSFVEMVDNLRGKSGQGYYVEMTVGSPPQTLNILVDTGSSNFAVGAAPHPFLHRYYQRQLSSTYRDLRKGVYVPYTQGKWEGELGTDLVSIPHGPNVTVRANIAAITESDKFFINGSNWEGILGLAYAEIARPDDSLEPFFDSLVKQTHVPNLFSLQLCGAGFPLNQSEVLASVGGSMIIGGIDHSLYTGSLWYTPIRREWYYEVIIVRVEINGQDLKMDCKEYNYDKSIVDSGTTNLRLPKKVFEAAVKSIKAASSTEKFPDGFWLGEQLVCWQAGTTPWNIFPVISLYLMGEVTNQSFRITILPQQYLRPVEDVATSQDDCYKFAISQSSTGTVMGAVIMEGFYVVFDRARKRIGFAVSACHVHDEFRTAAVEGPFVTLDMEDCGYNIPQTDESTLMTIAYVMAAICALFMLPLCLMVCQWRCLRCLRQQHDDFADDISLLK

Row | Structure (SMILES) | Ki
1 | CC(C)C[C@H](NC(=O)[C@@H]1CC(=O)NC/C=C/CCCOC(=O)N[C@@H](C(C)C)C(=O)N1)[C@@H](O)C[C@@H](C)C(=O)N[C@H](C(=O)NCc1ccccc1)C(C)C | 0.0142 µM and 0.031 µM
2 | C=CCCCOC(=O)N[C@H](C(=O)N[C@@H](CC(=O)NCC=C)C(=O)N[C@@H](CC(C)C)[C@@H](O)C[C@@H](C)C(=O)N[C@H](C(=O)NCc1ccccc1)C(C)C)C(C)C | 0.112 µM
3 | CC(C)C[C@H](NC(=O)[C@@H]1CC(=O)NC/C=C/COC(=O)N[C@@H](C(C)C)C(=O)N1)[C@@H](O)C[C@@H](C)C(=O)N[C@H](C(=O)NCc1ccccc1)C(C)C | 0.0872 µM
4 | CC(C)C[C@H](NC(=O)[C@@H]1CC(=O)NCCCCOC(=O)N[C@@H](C(C)C)C(=O)N1)[C@@H](O)C[C@@H](C)C(=O)N[C@H](C(=O)NCc1ccccc1)C(C)C | 0.218 µM
5 | CC(C)C[C@H](NC(=O)[C@@H]1CC(=O)NCCCCCOC(=O)N[C@@H](C(C)C)C(=O)N1)[C@@H](O)C[C@@H](C)C(=O)N[C@H](C(=O)NCc1ccccc1)C(C)C | 0.108 µM
6 | CC(C)C[C@H](NC(=O)[C@@H]1CC(=O)NC/C=C/CCOC(=O)N[C@@H](C(C)C)C(=O)N1)[C@@H](O)C[C@@H](C)C(=O)N[C@H](C(=O)NCc1ccccc1)C(C)C | 0.0284 µM
7 | C=CCCOC(=O)N[C@H](C(=O)N[C@@H](CC(=O)NCC=C)C(=O)N[C@@H](CC(C)C)[C@@H](O)C[C@@H](C)C(=O)N[C@H](C(=O)NCc1ccccc1)C(C)C)C(C)C | 0.0614 µM

What follows are compounds tested against T1, Beta-secretase 2 (Homo sapiens, UniProt Q9Y5Z0) (assay: Binding affinity for human brain memapsin 1).
T1 sequence (Q9Y5Z0 whole entry): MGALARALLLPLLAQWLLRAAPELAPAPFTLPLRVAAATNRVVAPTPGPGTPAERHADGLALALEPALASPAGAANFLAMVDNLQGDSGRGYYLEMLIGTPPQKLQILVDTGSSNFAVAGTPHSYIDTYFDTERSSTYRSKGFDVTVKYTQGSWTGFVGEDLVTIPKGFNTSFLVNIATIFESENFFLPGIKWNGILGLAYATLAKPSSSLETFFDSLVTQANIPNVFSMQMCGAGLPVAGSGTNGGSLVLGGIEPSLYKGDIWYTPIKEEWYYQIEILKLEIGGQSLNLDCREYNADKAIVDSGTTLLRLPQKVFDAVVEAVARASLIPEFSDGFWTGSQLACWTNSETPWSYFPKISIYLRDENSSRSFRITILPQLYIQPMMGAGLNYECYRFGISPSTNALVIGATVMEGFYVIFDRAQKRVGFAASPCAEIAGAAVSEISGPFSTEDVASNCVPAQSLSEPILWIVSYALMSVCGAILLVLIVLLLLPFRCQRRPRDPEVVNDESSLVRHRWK

Row | Structure (SMILES) | Ki [µM]
8 | CC(C)C[C@H](NC(=O)[C@@H]1CC(=O)NCCCCCCOC(=O)N[C@@H](C(C)C)C(=O)N1)[C@@H](O)C[C@@H](C)C(=O)N[C@H](C(=O)NCc1ccccc1)C(C)C | 0.0045
